Data as given in PubChem BioAssay (NCI).
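These data come from cells grown in 96-well plates and exposed to compound for 48 hours at five concentrations. GI50 is the concentration that inhibits growth by half. The concentration for full growth arrest is given as TGI.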

Tests used:
Assay in all cases: NCI-60 cell line screen, 48 h
786-0 renal = test system: 786-0 renal
A498 renal = test system: A498 renal
A549 NSCLC = test system: A549 NSCLC
ACHN renal = test system: ACHN renal
BT-549 breast = test system: BT-549 breast
CAKI-1 renal = test system: CAKI-1 renal
COLO 205 colon = test system: COLO 205 colon
DU-145 prostate = test system: DU-145 prostate
EKVX NSCLC = test system: EKVX NSCLC
HCC-2998 colon = test system: HCC-2998 colon
HCT-116 colon = test system: HCT-116 colon
HCT-15 colon = test system: HCT-15 colon
HL-60(TB) leukemia = test system: HL-60(TB) leukemia
HOP-62 NSCLC = test system: HOP-62 NSCLC
HOP-92 NSCLC = test system: HOP-92 NSCLC
HS 578T breast = test system: HS 578T breast
HT29 colon = test system: HT29 colon
IGROV1 ovarian = test system: IGROV1 ovarian
K-562 leukemia = test system: K-562 leukemia
KM12 colon = test system: KM12 colon
LOX IMVI melanoma = test system: LOX IMVI melanoma
M14 melanoma = test system: M14 melanoma
MALME-3M melanoma = test system: MALME-3M melanoma
MCF7 breast = test system: MCF7 breast
MDA-MB-231 breast = test system: MDA-MB-231 breast
MDA-MB-435 = test system: MDA-MB-435
NCI-H226 lung = test system: NCI-H226 lung
NCI-H23 lung = test system: NCI-H23 lung
NCI-H460 lung = test system: NCI-H460 lung
NCI-H522 lung = test system: NCI-H522 lung
NCI/ADR-RES ovarian = test system: NCI/ADR-RES ovarian
OVCAR-3 ovarian = test system: OVCAR-3 ovarian
OVCAR-4 ovarian = test system: OVCAR-4 ovarian
OVCAR-5 ovarian = test system: OVCAR-5 ovarian
OVCAR-8 ovarian = test system: OVCAR-8 ovarian
PC-3 prostate = test system: PC-3 prostate
RPMI-8226 leukemia = test system: RPMI-8226 leukemia
RXF 393 renal = test system: RXF 393 renal
SF-268 CNS = test system: SF-268 CNS
SF-295 CNS = test system: SF-295 CNS
SF-539 CNS = test system: SF-539 CNS
SK-MEL-2 melanoma = test system: SK-MEL-2 melanoma
SK-MEL-28 melanoma = test system: SK-MEL-28 melanoma
SK-MEL-5 melanoma = test system: SK-MEL-5 melanoma
SK-OV-3 ovarian = test system: SK-OV-3 ovarian
SN12C renal = test system: SN12C renal
SNB-19 CNS = test system: SNB-19 CNS
SNB-75 CNS = test system: SNB-75 CNS
SR leukemia = test system: SR leukemia
SW-620 colon = test system: SW-620 colon
TK-10 renal = test system: TK-10 renal
U251 CNS = test system: U251 CNS
UACC-257 melanoma = test system: UACC-257 melanoma
UACC-62 melanoma = test system: UACC-62 melanoma
UO-31 renal = test system: UO-31 renal

## COc1ccc(NC2=C(Cl)C(=O)C(C)=C(C)C2=O)cc1
786-0 renal
  GI50: 18.7 µM
  TGI: 34 µM
A498 renal
  GI50: 18 µM
  TGI: 47.2 µM
A549 NSCLC
  GI50: 21.7 µM
  TGI: > 100 µM
ACHN renal
  GI50: 3.94 µM
  TGI: 13.6 µM
BT-549 breast
  GI50: 13.3 µM
  TGI: 26.6 µM
CAKI-1 renal
  GI50: 10.4 µM
  TGI: 22.2 µM
COLO 205 colon
  GI50: 19.2 µM
  TGI: 38.8 µM
DU-145 prostate
  GI50: 25.2 µM
  TGI: 69.8 µM
EKVX NSCLC
  GI50: 1.79 µM
  TGI: 3.43 µM
HCC-2998 colon
  GI50: 16.8 µM
  TGI: 31.7 µM
HCT-116 colon
  GI50: 2 µM
  TGI: 4.37 µM
HCT-15 colon
  GI50: 13.7 µM
  TGI: 27.9 µM
HL-60(TB) leukemia
  GI50: 2.18 µM
  TGI: 5.54 µM
HOP-62 NSCLC
  GI50: 12.2 µM
  TGI: 25.4 µM
HOP-92 NSCLC
  GI50: 1.4 µM
  TGI: 2.84 µM
HS 578T breast
  GI50: 17.4 µM
  TGI: 72.4 µM
HT29 colon
  GI50: 23.5 µM
  TGI: 54.1 µM
IGROV1 ovarian
  GI50: 1.78 µM
  TGI: 3.35 µM
K-562 leukemia
  GI50: 2.58 µM
  TGI: 9.59 µM
KM12 colon
  GI50: 3.75 µM
  TGI: 44.3 µM
LOX IMVI melanoma
  GI50: 1.79 µM
  TGI: 3.59 µM
M14 melanoma
  GI50: 12 µM
  TGI: 26.6 µM
MALME-3M melanoma
  GI50: 14 µM
  TGI: 28.2 µM
MCF7 breast
  GI50: 2.35 µM
  TGI: 6.05 µM
MDA-MB-231 breast
  GI50: 1.99 µM
  TGI: 4.49 µM
MDA-MB-435
  GI50: 2.74 µM
  TGI: 7.13 µM
NCI-H226 lung
  GI50: 12.3 µM
  TGI: 27.6 µM
NCI-H23 lung
  GI50: 14.8 µM
  TGI: 55 µM
NCI-H460 lung
  GI50: 25.5 µM
  TGI: > 100 µM
NCI-H522 lung
  GI50: 13.3 µM
  TGI: 29.5 µM
NCI/ADR-RES ovarian
  GI50: 2.89 µM
  TGI: 9.87 µM
OVCAR-3 ovarian
  GI50: 2.12 µM
  TGI: 4.53 µM
OVCAR-4 ovarian
  GI50: 1.71 µM
  TGI: 3.1 µM
OVCAR-5 ovarian
  GI50: 16.8 µM
  TGI: 35.7 µM
OVCAR-8 ovarian
  GI50: 1.84 µM
  TGI: 3.84 µM
PC-3 prostate
  GI50: 4.51 µM
  TGI: 20.6 µM
RPMI-8226 leukemia
  GI50: 2.23 µM
  TGI: 5.69 µM
RXF 393 renal
  GI50: 9.13 µM
  TGI: 21.4 µM
SF-268 CNS
  GI50: 11.4 µM
  TGI: 52.2 µM
SF-295 CNS
  GI50: 10.3 µM
  TGI: 23.7 µM
SF-539 CNS
  GI50: 15.5 µM
  TGI: 29.4 µM
SK-MEL-2 melanoma
  GI50: 11 µM
  TGI: 24.1 µM
SK-MEL-28 melanoma
  GI50: 14.9 µM
  TGI: 28.8 µM
SK-MEL-5 melanoma
  GI50: 6.45 µM
  TGI: 19.1 µM
SK-OV-3 ovarian
  GI50: 10.8 µM
  TGI: 22.7 µM
SN12C renal
  GI50: 12.7 µM
  TGI: 26.3 µM
SNB-19 CNS
  GI50: 10.3 µM
  TGI: 22.1 µM
SNB-75 CNS
  GI50: 4.49 µM
  TGI: 19.1 µM
SR leukemia
  GI50: 2.37 µM
  TGI: 8.06 µM
SW-620 colon
  GI50: 3.92 µM
  TGI: 18.9 µM
TK-10 renal
  GI50: 28.6 µM
  TGI: 52.1 µM
U251 CNS
  GI50: 7.5 µM
  TGI: 21 µM
UACC-257 melanoma
  GI50: 1.86 µM
  TGI: 3.96 µM
UACC-62 melanoma
  GI50: 10.6 µM
  TGI: 22.7 µM
UO-31 renal
  GI50: 11.1 µM
  TGI: 23.1 µM
